Test results taken from ChEMBL document CHEMBL5678818, “Discovery of potent SOS1 inhibitors that block RAS activation via disruption of the RAS-SOS1 interaction” (Proc Natl Acad Sci U S A, 2019).

Tests used:
[1] = target: T1, Hormonally up-regulated neu tumor-associated kinase (Homo sapiens) (UniProt P57058); experiment: Inhibition of HUNK (unknown origin) assessed as residual activity at 100 nM by KINOMEscan analysis relative to control
T1 sequence (whole entry): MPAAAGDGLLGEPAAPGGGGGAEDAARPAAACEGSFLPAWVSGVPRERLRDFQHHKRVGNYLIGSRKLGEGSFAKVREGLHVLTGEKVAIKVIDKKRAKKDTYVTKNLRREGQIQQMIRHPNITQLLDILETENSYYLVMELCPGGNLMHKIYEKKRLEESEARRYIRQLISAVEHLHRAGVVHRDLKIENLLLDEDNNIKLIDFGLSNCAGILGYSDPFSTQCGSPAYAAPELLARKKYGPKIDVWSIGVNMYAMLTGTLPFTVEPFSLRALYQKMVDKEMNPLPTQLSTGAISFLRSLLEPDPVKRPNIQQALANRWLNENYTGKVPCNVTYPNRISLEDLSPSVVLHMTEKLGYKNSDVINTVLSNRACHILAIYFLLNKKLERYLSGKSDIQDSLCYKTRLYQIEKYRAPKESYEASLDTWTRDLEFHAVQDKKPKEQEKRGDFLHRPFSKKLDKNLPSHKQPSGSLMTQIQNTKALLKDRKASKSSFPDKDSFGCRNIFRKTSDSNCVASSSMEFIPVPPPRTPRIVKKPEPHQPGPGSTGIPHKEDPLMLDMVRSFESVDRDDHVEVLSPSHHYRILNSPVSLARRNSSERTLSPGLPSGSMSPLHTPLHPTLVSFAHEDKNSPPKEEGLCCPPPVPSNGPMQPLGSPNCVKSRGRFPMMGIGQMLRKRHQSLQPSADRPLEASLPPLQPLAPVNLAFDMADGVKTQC

[2] = target: T2, Mitogen-activated protein kinase kinase kinase 19 (Homo sapiens) (UniProt Q56UN5); experiment: Inhibition of YSK4 (unknown origin) assessed as residual activity at 100 nM by KINOMEscan analysis relative to control
T2 sequence (whole entry): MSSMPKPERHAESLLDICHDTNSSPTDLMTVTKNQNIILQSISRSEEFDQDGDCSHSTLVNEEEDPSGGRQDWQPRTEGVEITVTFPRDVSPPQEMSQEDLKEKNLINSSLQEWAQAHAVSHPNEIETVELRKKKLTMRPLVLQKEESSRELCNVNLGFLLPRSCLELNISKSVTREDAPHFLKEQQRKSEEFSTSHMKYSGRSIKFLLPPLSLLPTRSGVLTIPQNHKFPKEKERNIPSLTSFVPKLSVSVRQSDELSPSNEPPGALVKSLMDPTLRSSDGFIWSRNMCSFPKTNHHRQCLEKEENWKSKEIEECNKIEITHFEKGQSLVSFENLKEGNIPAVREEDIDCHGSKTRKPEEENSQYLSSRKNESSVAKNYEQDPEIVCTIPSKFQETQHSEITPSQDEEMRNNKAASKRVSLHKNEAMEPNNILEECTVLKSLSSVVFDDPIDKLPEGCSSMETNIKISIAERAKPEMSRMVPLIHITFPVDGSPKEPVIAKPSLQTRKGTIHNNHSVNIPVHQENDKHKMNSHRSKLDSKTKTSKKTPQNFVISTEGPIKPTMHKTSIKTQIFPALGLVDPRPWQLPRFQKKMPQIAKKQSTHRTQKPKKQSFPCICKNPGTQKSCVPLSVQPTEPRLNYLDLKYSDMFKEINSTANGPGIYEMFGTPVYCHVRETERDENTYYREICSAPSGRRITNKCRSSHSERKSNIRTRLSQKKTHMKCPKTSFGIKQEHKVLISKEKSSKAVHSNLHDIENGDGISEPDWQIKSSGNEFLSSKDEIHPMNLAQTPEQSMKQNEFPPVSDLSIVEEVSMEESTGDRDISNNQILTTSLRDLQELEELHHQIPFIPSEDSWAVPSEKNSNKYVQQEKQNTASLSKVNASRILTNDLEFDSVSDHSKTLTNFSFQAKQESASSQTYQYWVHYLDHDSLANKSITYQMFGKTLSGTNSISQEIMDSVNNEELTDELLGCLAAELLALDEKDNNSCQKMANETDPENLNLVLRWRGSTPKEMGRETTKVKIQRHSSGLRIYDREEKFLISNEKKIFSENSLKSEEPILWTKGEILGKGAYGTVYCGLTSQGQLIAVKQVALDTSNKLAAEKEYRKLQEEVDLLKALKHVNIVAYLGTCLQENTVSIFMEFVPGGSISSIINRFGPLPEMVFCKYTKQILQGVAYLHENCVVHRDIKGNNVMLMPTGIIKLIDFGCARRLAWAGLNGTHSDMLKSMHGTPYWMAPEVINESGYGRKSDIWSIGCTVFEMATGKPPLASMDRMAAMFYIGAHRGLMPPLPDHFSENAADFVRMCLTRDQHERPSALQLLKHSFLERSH

[3] = target: Serine/threonine-protein kinase MRCK beta (Homo sapiens) (UniProt Q9Y5S2); experiment: Inhibition of MRCKB (unknown origin) assessed as residual activity at 100 nM by KINOMEscan analysis relative to control
Serine/threonine-protein kinase MRCK beta (Homo sapiens), sequence (Q9Y5S2 whole entry, canonical isoform): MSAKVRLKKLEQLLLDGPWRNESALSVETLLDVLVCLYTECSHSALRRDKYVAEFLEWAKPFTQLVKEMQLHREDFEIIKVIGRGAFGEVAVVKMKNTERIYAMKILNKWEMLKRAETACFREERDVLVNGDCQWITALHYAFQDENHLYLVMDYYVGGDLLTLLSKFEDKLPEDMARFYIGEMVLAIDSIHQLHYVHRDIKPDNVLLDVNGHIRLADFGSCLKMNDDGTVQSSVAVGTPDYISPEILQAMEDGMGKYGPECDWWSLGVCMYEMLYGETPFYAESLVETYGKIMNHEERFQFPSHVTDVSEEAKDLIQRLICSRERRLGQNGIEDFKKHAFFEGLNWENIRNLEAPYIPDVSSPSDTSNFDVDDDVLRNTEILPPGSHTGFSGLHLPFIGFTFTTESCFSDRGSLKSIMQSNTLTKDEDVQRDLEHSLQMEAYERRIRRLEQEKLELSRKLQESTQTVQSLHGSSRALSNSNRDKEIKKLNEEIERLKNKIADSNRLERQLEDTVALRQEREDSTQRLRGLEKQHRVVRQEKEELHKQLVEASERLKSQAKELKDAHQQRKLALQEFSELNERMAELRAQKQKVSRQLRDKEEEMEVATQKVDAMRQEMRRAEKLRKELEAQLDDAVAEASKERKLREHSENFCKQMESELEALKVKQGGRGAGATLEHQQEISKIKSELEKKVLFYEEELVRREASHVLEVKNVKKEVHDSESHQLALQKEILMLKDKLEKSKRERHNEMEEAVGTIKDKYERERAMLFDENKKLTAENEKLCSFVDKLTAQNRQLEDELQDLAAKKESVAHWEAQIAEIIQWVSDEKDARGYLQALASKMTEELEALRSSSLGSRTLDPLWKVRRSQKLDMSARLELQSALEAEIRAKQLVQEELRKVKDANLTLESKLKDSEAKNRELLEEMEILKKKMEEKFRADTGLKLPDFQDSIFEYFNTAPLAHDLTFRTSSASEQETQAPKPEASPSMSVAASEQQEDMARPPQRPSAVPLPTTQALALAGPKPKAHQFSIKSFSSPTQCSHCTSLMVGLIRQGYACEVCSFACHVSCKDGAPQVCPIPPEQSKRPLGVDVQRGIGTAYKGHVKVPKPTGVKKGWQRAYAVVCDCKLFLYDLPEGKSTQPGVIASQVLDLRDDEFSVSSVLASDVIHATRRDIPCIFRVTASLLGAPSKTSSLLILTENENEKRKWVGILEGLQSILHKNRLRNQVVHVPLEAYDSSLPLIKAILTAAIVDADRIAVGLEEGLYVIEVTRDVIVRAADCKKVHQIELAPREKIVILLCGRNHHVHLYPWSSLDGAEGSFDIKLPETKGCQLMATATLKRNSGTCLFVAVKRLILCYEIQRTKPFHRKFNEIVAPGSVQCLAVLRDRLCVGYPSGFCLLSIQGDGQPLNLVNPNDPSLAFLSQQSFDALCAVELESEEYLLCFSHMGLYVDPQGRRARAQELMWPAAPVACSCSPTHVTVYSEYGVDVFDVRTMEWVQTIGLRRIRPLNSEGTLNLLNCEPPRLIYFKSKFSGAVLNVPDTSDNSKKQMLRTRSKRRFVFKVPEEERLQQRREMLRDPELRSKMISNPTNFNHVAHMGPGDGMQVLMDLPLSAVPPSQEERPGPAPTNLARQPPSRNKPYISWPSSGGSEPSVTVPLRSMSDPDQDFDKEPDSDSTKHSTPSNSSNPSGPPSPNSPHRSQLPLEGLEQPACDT

[4] = system: Phosphatidylinositol 4,5-bisphosphate 3-kinase catalytic subunit alpha isoform (Homo sapiens), P42336 [C420R]; experiment: Inhibition of PIK3CA C420R mutant (unknown origin) assessed as residual activity at 100 nM by KINOMEscan analysis relative to control
Phosphatidylinositol 4,5-bisphosphate 3-kinase catalytic subunit alpha isoform (Homo sapiens), P42336 [C420R], sequence (P42336 whole entry C420R, canonical isoform): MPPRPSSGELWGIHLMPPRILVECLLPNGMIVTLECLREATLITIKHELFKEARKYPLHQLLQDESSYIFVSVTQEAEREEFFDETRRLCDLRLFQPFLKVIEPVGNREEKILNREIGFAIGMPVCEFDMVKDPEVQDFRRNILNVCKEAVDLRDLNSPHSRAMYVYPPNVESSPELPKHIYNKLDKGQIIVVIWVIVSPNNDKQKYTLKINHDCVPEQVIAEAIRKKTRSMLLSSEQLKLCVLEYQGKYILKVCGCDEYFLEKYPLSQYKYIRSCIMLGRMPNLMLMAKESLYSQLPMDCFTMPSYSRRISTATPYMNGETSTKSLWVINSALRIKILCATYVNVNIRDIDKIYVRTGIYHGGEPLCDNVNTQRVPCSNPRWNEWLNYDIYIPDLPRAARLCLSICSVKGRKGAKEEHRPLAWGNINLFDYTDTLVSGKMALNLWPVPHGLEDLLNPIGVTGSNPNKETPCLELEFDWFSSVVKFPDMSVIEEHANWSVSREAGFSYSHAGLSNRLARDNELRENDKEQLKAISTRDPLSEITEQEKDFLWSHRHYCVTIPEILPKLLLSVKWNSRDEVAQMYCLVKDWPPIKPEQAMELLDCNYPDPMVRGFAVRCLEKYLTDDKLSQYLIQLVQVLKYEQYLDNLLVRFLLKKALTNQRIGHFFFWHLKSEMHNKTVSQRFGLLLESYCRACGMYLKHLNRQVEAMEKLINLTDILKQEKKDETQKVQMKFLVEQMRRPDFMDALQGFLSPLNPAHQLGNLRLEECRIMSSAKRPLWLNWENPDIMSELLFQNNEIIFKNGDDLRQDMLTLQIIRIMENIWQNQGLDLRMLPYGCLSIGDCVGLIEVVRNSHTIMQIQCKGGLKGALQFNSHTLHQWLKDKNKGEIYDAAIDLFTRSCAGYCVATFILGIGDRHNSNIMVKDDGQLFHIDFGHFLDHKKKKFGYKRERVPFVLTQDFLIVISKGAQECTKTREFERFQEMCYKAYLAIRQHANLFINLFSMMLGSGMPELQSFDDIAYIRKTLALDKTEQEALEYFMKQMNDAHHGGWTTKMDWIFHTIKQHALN

[5] = target: Protein-tyrosine kinase 2-beta (Homo sapiens) (UniProt Q14289); experiment: Inhibition of PYK2 (unknown origin) assessed as residual activity at 100 nM by KINOMEscan analysis relative to control
Protein-tyrosine kinase 2-beta (Homo sapiens), sequence (Q14289 whole entry, looked up): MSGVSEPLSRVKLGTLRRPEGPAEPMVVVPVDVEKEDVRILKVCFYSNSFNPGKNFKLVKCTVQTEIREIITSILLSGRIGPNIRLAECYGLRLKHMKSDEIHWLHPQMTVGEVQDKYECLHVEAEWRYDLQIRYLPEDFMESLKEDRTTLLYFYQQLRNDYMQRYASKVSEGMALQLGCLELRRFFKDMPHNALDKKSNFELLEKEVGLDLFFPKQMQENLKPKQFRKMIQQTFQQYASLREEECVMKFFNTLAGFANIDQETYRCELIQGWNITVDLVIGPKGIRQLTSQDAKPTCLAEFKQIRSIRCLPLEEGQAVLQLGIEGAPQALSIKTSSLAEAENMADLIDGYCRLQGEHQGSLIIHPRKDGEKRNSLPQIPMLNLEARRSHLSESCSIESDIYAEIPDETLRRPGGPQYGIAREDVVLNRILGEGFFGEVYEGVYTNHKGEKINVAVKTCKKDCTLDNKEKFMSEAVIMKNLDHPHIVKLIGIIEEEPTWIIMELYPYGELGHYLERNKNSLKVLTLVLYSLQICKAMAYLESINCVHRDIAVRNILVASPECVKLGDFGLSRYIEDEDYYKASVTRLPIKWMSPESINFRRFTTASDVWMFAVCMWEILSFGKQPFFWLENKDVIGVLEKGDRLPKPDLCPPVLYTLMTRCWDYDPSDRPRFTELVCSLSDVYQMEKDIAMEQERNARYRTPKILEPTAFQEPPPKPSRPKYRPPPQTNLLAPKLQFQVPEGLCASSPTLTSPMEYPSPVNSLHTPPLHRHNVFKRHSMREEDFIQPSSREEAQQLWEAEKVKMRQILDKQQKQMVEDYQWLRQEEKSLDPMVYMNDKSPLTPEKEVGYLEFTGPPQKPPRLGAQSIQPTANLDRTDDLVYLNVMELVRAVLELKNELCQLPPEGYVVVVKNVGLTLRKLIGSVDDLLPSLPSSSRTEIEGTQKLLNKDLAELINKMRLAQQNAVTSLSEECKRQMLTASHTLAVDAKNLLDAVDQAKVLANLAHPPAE

[6] = target: T3, Rhodopsin kinase GRK7 (Homo sapiens) (UniProt Q8WTQ7); experiment: Inhibition of GRK7 (unknown origin) assessed as residual activity at 100 nM by KINOMEscan analysis relative to control
T3 sequence (whole entry): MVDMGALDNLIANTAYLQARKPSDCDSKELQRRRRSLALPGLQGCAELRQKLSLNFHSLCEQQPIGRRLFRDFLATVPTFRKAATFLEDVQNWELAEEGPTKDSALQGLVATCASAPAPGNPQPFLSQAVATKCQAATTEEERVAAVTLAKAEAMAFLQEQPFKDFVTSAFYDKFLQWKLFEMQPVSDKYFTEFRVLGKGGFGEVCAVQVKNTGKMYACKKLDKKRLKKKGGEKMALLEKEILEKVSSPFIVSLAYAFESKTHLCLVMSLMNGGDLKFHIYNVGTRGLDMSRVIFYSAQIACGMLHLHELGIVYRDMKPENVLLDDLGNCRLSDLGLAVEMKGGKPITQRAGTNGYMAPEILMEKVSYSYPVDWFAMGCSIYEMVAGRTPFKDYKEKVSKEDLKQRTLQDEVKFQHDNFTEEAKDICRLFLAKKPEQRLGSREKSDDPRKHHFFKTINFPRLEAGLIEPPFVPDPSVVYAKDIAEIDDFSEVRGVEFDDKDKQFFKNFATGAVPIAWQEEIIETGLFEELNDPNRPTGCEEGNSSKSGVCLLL

[7] = target: Serine/threonine-protein kinase 32B (Homo sapiens) (UniProt Q9NY57); experiment: Inhibition of YANK2 (unknown origin) assessed as residual activity at 100 nM by KINOMEscan analysis relative to control
Serine/threonine-protein kinase 32B (Homo sapiens), sequence (Q9NY57 whole entry): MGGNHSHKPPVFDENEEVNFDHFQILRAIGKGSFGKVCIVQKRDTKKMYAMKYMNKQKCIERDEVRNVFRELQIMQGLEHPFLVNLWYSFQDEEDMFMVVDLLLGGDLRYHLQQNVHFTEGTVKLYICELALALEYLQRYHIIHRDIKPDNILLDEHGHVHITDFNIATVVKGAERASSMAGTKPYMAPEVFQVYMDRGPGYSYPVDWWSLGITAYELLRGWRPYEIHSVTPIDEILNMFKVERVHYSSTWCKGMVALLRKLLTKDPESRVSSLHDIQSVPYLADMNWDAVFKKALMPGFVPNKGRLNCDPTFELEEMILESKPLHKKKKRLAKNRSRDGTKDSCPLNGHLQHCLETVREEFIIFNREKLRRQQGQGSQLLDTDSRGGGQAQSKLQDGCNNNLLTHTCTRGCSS

For `COc1cc2ncnc(N[C@H](C)c3cccc4ccccc34)c2cc1OC`, which Activity [1] is on record?
The Activity was 91%.

And the Activity [2]?
The Activity was 92%.

What about the Activity [3] of the same compound?
Its Activity is 82%.

What about the Activity [4] of the same compound?
The Activity was 90%.

What about the Activity [5] of the same compound?
The Activity was 100%.

And the Activity [6]?
Its Activity is 84%.

And the Activity [7]?
The Activity was 84%.
